From publication PMC5699210 (Bioorganic & medicinal chemistry letters, 2011)
“Also recorded” adds a separate entry of the source.

Test system: rats with inflammation of the dura
Test: Rat model of migraine pain
Type: in vivo
Conditions: oral 30 mg/kg

CN1CCC[C@@H]1CCn1ccc2ccc(NC(=N)c3cccs3)cc21.Cl.Cl [(R)-8]
tactile hyperesthesia (allodynia) of the hindpaw (15 min prior to the inflammatory soup, 30 mg/kg): attenuated the development of allodynia between 2 and 6 h post-dose; also recorded: attenuates the tactile hyperesthesia (allodynia); also recorded: reduce tactile hyperesthesia (allodynia) | time of maximum effect on allodynia (post-dose): 4 h
